ChEMBL document CHEMBL1201862, “PubChem BioAssay data set” (2004)
Calls of active or inactive are those of the source.

Tests used:
[1] = molecular target: T1, Serine/threonine-protein phosphatase (Candida dubliniensis (strain CD36 / CBS 7987 / NCPF 3949 / NRRLY-17841) (Yeast), UniProt B9W6M3); experiment: blockers of CaCl2-induced CDRE-lacZ signaling – S. cerevisiae, luminescence, secondary, dose response (AID 2388); format: functional, cell-based;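 further: yeast reporter cells carrying a calcineurin-responsive lacZ construct stimulated with calcium chloride; luminescent beta-galactosidase reporter signal in whole cells rather than isolated phosphatase activity; potency for inhibition where a drop in reporter signal means calcineurin blockade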
T1 sequence (B9W6M3 whole entry): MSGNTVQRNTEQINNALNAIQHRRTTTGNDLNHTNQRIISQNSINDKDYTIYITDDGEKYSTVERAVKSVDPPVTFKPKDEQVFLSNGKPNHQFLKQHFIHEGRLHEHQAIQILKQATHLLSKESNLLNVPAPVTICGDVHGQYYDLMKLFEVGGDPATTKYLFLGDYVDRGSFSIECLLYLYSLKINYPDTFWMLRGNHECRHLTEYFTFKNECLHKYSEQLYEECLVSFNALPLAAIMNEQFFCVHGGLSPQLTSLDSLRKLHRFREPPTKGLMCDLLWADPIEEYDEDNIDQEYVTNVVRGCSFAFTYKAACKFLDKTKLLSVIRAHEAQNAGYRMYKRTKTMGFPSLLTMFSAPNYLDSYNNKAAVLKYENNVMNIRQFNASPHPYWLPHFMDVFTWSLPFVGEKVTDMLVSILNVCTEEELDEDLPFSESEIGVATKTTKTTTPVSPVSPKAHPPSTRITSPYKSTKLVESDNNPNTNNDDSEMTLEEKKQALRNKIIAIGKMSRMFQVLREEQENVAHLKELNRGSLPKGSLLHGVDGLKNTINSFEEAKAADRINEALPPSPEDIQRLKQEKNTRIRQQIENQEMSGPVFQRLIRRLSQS

[2] = NIH-3T3 fibroblast cytotoxicity, dose response, cytotoxicity control, cell-based, fluorescence, Alamar Blue, secondary assay (AID 2327); format: functional;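 further: NIH-3T3 mouse fibroblasts cultured with fluconazole at 8 µg/mL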
[3] = molecular target: T2, Histone-lysine N-methyltransferase NSD2 (Homo sapiens, UniProt O96028); format: biochemical
T2 sequence (O96028 whole entry): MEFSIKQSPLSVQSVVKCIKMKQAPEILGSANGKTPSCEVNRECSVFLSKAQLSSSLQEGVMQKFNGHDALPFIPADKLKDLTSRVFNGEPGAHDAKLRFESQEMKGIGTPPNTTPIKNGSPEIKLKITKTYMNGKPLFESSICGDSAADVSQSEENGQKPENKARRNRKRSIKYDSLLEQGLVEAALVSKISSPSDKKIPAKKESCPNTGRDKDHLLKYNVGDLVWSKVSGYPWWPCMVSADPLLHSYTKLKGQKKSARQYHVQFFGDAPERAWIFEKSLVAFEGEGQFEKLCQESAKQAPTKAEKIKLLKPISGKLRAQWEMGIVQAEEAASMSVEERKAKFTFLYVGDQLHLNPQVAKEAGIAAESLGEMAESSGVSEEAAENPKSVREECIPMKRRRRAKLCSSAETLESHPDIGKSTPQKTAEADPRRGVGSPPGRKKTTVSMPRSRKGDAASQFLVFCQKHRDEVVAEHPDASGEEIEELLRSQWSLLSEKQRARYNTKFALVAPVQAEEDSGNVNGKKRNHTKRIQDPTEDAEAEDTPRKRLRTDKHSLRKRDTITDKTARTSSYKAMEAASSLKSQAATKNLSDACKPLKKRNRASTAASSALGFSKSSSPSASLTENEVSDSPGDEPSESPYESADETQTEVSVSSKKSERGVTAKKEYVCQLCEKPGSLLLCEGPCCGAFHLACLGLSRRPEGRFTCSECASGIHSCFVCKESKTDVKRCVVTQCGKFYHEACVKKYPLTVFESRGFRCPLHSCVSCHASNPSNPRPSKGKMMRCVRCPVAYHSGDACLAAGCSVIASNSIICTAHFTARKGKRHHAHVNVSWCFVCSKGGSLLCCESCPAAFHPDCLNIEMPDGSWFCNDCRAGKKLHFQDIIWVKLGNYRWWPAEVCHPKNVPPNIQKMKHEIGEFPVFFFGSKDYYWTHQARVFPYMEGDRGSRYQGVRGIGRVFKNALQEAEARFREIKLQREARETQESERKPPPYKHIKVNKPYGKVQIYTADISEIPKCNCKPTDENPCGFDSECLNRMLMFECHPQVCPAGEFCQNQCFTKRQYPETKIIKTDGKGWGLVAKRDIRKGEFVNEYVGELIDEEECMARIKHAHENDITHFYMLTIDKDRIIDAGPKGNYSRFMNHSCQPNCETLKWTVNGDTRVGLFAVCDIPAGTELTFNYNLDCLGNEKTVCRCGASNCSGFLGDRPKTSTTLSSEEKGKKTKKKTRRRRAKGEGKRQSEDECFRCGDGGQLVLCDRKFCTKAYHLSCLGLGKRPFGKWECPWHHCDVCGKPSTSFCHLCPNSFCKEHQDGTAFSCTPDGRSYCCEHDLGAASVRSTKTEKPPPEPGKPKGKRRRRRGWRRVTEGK

[4] = molecular target: ATP-dependent molecular chaperone HSP82 (Candida albicans (strain WO-1) (Yeast), UniProt C4YTQ8); experiment: steroid-induced GRE reporter decrease in yeast – S. cerevisiae, luminescence, Hsp90 inhibitor project, dose response (AID 2400); format: functional, cell-based;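 further: beta-galactosidase luminescence from glucocorticoid response element reporter as proxy for Hsp90 function; inhibitor potency where signal loss means Hsp90 inhibition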
Sequence of ATP-dependent molecular chaperone HSP82 (C4YTQ8 whole entry): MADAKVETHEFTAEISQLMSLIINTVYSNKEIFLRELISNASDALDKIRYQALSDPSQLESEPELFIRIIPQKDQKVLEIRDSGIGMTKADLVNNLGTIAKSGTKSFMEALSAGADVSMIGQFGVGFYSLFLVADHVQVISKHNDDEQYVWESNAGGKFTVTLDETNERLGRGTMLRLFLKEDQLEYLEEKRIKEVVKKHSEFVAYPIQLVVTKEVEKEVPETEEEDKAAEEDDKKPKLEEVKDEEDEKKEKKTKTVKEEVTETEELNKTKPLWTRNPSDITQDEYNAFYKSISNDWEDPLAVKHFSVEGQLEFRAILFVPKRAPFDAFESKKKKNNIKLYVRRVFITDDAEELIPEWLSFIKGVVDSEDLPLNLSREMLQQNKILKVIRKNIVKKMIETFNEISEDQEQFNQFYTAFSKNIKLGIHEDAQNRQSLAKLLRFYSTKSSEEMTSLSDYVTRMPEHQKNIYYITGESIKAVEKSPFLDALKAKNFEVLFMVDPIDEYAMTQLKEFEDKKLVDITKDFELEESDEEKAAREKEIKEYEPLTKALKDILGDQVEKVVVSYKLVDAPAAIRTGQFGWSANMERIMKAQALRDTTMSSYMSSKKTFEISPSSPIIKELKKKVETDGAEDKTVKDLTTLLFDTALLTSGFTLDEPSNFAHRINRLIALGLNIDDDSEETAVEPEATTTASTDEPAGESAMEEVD

[5] = fluconazole-exposed Candida albicans growth modulators – fluorescence, retest, confirmation (AID 2467); format: functional, cell-based
[6] = molecular target: T3, Apoptotic protease-activating factor 1 (Homo sapiens, UniProt O14727); experiment: SAR analysis of small molecule Activators of Apaf-1 in a Fluorescent assay.; format: functional; conditions: read-out: EC50_Mean;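 further: caspase-3 cleavage of fluorogenic Rh110 DEVD substrate downstream of apoptosome activation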
T3 sequence (O14727 whole entry): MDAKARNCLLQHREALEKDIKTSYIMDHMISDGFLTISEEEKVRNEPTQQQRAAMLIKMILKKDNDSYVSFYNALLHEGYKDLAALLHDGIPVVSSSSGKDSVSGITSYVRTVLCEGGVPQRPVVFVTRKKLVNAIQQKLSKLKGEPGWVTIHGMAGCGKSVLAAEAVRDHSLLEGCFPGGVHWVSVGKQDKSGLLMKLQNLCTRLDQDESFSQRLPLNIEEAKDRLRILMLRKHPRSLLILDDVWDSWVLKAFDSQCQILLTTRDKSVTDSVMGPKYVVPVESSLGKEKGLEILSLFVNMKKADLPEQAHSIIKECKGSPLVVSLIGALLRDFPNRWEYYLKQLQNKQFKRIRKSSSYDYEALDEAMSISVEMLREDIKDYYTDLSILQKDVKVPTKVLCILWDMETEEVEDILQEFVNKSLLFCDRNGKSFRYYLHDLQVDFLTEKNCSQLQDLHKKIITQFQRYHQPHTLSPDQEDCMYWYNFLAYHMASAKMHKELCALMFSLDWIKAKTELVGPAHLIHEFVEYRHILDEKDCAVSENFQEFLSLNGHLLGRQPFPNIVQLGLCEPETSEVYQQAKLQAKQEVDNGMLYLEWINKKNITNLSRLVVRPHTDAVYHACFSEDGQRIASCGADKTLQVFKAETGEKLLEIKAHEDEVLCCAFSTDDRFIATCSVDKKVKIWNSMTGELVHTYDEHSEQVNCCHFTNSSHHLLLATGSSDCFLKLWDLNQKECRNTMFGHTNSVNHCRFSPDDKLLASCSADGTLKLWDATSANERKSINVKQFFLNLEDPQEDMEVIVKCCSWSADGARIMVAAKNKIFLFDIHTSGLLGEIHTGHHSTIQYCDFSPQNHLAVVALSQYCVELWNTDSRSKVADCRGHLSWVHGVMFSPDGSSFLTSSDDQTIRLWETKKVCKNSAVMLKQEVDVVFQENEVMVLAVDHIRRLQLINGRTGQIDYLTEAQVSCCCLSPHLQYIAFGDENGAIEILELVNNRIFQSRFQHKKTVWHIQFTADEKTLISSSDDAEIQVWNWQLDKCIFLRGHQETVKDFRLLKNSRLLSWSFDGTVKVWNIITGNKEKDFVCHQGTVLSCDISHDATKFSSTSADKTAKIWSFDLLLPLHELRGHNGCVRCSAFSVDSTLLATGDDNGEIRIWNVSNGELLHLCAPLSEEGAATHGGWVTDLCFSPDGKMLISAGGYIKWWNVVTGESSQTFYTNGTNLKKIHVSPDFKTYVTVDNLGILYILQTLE

[7] = alpha-synuclein stem-loop luciferase translation blockers – H4 neuroglioma cells, luminescence, confirmation (AID 1988); format: functional, cell-based
[8] = molecular target: Type-1 angiotensin II receptor (Homo sapiens, UniProt P30556); experiment: antagonism of angiotensin II type 1 receptor – cell-based, uHTS hits, selectivity assay for APJ receptor antagonist project, dose response (AID 463214); format: functional;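 further: antagonist potency against angiotensin II stimulated AT1 response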
Sequence of Type-1 angiotensin II receptor (P30556 whole entry): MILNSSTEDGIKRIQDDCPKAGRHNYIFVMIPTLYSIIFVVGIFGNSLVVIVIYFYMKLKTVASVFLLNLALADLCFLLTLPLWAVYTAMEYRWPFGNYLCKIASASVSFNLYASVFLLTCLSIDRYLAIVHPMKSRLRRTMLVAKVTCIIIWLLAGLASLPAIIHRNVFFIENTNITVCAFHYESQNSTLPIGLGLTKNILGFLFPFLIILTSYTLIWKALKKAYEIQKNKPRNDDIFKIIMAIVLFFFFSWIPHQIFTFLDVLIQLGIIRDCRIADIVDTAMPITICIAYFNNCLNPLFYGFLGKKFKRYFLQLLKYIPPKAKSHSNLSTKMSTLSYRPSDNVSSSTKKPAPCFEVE

Beta-galactosidase = Beta-galactosidase (Escherichia coli, UniProt Q8VNN2); experiment: PubChem AID 485352; format: functional
Sequence of Beta-galactosidase (Q8VNN2 whole entry): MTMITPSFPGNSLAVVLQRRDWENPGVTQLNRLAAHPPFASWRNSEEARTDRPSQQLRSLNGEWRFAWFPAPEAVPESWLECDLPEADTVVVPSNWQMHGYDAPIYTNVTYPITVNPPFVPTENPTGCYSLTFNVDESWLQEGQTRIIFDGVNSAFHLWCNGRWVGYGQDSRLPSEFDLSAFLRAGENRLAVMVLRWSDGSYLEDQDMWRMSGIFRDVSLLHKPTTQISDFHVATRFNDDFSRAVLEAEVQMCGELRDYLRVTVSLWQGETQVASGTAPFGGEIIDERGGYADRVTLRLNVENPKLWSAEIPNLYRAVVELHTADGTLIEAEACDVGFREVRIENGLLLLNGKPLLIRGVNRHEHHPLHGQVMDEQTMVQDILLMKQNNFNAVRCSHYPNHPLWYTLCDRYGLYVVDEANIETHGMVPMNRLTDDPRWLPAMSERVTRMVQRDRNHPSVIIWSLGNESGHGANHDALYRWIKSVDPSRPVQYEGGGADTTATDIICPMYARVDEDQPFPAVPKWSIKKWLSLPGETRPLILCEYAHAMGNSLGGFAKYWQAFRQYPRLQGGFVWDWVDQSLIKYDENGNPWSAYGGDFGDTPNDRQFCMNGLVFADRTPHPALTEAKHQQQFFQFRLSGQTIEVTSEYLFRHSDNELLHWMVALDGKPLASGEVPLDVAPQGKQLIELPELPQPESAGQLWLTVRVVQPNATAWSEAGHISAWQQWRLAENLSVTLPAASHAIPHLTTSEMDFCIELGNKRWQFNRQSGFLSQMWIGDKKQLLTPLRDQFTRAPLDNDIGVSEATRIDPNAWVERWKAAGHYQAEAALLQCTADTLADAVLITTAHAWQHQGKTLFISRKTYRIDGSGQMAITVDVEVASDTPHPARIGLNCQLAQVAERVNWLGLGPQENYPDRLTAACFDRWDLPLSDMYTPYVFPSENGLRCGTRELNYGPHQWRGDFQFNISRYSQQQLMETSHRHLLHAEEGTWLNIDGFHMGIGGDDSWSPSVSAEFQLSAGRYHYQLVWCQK

[9] = Luminescence Cell-Based Dose Response HTS to Identify Inhibitors of 5'UTR Stem-Loop Driven Prion Protein mRNA Translation in H4 Neuroglioblastoma Cells. [Related pubchem assays: 1827 (Project Summary), 1813 (Primary HTS)]; format: functional
[10] = molecular target: T4, Short transient receptor potential channel 4 (Mus musculus, UniProt Q9QUQ5); experiment: calcium entry via TRPC4 opening agents – cell-based, HEK293 TRPC4/mu-opioid, Fluo-4 calcium, dose response (AID 434937); format: functional
T4 sequence (Q9QUQ5 whole entry): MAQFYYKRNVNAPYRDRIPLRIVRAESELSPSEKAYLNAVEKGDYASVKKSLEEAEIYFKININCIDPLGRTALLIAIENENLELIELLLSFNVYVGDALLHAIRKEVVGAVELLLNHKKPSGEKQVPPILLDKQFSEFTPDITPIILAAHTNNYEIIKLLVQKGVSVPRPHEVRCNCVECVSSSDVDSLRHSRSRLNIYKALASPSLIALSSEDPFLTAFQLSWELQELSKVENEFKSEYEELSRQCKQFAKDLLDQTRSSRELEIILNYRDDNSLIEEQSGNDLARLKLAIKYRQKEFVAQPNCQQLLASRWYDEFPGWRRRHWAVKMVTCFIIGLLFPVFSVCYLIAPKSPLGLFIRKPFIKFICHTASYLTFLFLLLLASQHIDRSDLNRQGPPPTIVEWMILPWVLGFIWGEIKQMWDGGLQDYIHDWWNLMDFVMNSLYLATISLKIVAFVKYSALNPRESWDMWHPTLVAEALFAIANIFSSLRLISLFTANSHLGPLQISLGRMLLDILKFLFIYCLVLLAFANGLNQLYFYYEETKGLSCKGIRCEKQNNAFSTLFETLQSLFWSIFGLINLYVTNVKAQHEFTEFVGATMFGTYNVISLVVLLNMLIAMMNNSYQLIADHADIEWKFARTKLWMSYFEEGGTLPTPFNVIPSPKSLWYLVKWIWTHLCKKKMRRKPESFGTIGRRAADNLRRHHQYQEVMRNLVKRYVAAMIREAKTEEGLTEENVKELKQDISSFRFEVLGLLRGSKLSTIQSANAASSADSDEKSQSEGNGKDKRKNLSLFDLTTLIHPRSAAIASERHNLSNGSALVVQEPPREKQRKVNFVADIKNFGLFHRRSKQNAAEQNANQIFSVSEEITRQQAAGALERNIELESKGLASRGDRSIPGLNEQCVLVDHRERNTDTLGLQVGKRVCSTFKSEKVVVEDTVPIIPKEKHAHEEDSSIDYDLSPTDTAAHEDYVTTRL

[11] = luciferase reporter signal suppression in cells – H4 neuroglioma cells, luminescence, dose response (AID 1990); format: functional, cell-based
[12] = molecular target: Heat shock protein HSP 90-alpha (Homo sapiens, UniProt P07900); format: functional, organism-based
[13] = molecular target: T5, High affinity choline transporter 1 (Homo sapiens, UniProt Q9GZV3); experiment: human choline transporter blockers, potency – cell-based, 5-point CRC, membrane potential dye, dose response (AID 504840); format: functional
T5 sequence (Q9GZV3 whole entry): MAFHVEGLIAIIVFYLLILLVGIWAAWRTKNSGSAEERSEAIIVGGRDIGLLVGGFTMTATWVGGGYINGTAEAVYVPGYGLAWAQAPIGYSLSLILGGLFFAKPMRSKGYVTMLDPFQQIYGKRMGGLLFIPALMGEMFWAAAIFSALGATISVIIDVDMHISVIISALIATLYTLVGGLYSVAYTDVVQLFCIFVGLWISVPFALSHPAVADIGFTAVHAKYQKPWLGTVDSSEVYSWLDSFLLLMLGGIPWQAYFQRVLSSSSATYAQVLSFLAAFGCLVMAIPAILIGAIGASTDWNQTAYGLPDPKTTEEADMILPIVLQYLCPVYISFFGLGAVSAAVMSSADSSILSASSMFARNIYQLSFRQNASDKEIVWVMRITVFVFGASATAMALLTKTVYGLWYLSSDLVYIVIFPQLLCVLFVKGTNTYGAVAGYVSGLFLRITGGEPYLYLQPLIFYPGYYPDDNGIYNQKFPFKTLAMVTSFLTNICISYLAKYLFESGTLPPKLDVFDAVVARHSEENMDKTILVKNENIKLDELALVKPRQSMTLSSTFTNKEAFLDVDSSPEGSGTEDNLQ

[14] = molecular target: T5, High affinity choline transporter 1; experiment: human choline transporter radiolabel uptake blockers – cell-based, 3H-choline uptake, CHT LV-AA trafficking mutant, CRC, dose response (AID 602208); format: functional
[15] = molecular target: T5, High affinity choline transporter 1; experiment: human choline transporter blockers, potency – cell-based, 10-point CRC, membrane potential dye, dose response (AID 588401); format: functional;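 further: membrane potential dye fluorescence of choline-evoked depolarization via CHT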
Melanocortin receptor 4 = Melanocortin receptor 4 (Homo sapiens, UniProt P32245); format: functional, cell-based;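 further: Cell-based assay with luminescence read-out, confirmatory dose-response testing for agonist activity of biased ligands at MC4R; human U2OS cells with tagged receptor and beta-arrestin; potency of agonists that increase receptor coupling to beta-arrestin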
Sequence of Melanocortin receptor 4 (P32245 whole entry): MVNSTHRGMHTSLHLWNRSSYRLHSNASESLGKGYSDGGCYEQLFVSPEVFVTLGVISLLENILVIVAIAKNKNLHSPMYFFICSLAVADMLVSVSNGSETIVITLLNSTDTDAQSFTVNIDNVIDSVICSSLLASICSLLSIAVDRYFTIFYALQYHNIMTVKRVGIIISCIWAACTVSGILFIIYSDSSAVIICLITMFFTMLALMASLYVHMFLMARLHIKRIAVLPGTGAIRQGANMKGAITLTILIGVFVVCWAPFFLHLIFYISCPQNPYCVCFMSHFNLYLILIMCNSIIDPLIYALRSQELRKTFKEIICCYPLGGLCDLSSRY

[16] = molecular target: Ras and Rab interactor 1/Tyrosine-protein kinase ABL1 (Homo sapiens, UniProt P00519+Q13671); format: functional;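 further: biochemical TR-FRET dose-response test measuring inhibition of binding between Rin1 and Abl proteins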
Sequence of Ras and Rab interactor 1/Tyrosine-protein kinase ABL1 (P00519 whole entry): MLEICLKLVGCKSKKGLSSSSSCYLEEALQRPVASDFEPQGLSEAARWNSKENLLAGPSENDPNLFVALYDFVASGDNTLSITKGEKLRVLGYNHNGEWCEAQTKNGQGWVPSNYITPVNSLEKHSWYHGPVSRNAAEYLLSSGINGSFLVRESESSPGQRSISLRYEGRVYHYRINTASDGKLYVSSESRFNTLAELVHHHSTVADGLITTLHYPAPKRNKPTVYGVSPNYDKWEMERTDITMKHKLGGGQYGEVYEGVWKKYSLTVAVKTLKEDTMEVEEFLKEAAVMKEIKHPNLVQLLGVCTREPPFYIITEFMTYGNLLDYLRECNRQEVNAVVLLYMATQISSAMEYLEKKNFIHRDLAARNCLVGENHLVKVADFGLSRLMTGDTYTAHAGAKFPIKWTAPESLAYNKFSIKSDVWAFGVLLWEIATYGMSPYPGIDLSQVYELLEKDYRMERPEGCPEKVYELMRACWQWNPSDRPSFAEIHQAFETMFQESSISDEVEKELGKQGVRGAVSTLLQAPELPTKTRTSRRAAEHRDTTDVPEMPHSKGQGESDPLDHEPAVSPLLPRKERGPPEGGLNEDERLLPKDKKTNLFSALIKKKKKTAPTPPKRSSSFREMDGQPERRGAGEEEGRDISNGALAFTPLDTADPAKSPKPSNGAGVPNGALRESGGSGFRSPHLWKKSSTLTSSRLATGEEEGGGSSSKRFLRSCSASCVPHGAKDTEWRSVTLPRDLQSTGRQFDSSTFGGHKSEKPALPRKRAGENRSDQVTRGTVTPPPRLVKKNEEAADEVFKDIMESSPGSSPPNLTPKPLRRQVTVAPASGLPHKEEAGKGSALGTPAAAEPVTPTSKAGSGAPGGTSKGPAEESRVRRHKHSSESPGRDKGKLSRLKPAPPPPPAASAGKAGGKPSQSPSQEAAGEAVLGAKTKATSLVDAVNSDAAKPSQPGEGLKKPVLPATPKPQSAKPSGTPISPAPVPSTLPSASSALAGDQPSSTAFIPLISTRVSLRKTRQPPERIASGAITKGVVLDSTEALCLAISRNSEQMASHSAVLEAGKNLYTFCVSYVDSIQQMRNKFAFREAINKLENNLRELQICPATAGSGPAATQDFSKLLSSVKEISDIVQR
Sequence of Ras and Rab interactor 1/Tyrosine-protein kinase ABL1 (Q13671 whole entry): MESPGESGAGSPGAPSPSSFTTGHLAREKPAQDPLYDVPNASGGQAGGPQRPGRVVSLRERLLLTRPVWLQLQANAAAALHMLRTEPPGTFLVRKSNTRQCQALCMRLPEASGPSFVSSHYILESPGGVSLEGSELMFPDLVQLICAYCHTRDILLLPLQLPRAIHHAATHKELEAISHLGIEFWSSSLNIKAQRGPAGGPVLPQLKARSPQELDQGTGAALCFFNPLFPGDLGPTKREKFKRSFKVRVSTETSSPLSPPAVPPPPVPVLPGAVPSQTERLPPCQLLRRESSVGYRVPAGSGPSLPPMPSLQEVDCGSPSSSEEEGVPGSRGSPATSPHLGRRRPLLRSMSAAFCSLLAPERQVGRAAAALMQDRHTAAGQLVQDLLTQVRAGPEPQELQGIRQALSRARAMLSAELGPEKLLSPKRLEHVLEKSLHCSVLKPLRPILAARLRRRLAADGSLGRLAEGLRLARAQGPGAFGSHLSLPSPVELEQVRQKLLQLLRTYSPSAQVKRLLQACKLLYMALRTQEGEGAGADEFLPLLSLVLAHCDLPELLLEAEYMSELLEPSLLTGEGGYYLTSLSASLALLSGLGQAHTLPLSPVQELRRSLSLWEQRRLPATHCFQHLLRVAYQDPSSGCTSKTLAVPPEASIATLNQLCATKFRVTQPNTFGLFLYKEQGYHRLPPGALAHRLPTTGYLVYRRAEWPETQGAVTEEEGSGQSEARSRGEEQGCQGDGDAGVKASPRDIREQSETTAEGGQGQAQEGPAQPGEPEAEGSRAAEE

COc1ccc(OC)c(/C=C2\SC(=S)N(NS(=O)(=O)c3ccc(C)cc3)C2=O)c1
EC50 [1]: > 180 µM (inactive)
EC50 [2]: > 150 µM (inactive)
AC50 [3]: 15.9 µM (active)
EC50 [4]: 5.2 µM (active)
EC50 [5]: 0.832 µM (active)

O=C(O)c1cc(-c2cc(F)c(F)cc2F)[nH]n1
EC50 [6]: > 100 µM (inactive)

COc1ccccc1C(=O)NNC(=S)NC(=O)c1cccs1
EC50 [7]: > 120 µM (not active)
IC50 [8]: 20.4 µM (not active)
EC50 (Beta-galactosidase): > 40 µM (inactive)
EC50 [9]: 13.2 µM (active)
EC50 [10]: 6.68 µM (active)
EC50 [11]: > 120 µM (not active)
AC50 [12]: 3.85 µM (active)

CC1CCC(NC(=O)c2cccc(S(=O)(=O)N3CCN(C)CC3)c2)CC1 (stereo not drawn)
IC50 [13]: 4.17 µM (active)
IC50 [14]: 4.68 µM (active)
IC50 [15]: 2.05 µM (active)

COc1ccc(-c2cnc3c(NC(C)=O)cc(-c4ccccc4OC)cn23)cc1OC
EC50 (Melanocortin receptor 4): > 89.2 µM (inactive)

O=C1CNC(=O)/C1=C\NC12CC3CC(CC(C3)C1)C2
IC50 [16]: 21 µM (inactive)
